Reference: patent US20260256792A1, “TREATMENT OF CHRONIC SPONTANEOUS URTICARIA BY ADMINISTERING (R)-2-[3-[4-AMINO-3-(2-FLUORO-4-PHENOXY-PHENYL)PYRAZOLO[3,4-D]PYRIMIDIN-1-YL]PIPERIDINE-1-CARBONYL]-4-METHYL-4-[4-(OXETAN-3-YL)PIPERAZIN-1-YL]PENT-2-ENENITRILE” (priority 2023, published 2026)

Test system: moderate-to-severe chronic spontaneous urticaria (CSU)
Assay: Phase 2 CSU study: itch severity score over 7 days (ISS7)
Type: in vivo, human
Conditions: Omalizumab-Naïve
From the text: The study comprises a 12 week, randomized, double-blind, placebo-controlled, multi-center, dose-ranging efficacy and safety phase, followed by a 40 week open label extension (OLE) phase (see FIG. 1). The study consists of three phases and an optional OLE phase. […] Clinically, CSU is characterized by the spontaneous and recurrent appearance of pruritic hives. The proposed primary endpoints were the UAS7 at Week 12 in EU and EU reference countries and the ISS7 in the US. Regardless of where a participant was from, all assessments were the same. The UAS7 score is a composite score containing both the HSS7 and the ISS7. This allowed a global assessment of the two key components of urticaria: hives and itch. […] The UAS is a validated PRO measure. […] The daily UAS scores range from 0 to 6 point/day. […] Patients were to complete the UAS using the e-diary. […] The following secondary endpoints were to be analyzed using the same approach as for the primary endpoint: • Change from baseline in UAS7 at Week 4 • Change from baseline in UAS7 at Week 12 (for US and US reference countries) • Change from baseline in ISS7 at Week 12 (except US and US reference countries) • Change from baseline in HSS7 at Week 12

CC(C)(C=C(C#N)C(=O)N1CCC[C@@H](n2nc(-c3ccc(Oc4ccccc4)cc3F)c3c(N)ncnc32)C1)N1CCN(C2COC2)CC1 [rilzabrutinib, (R)-2-[3-[4-amino-3-(2-fluoro-4-phenoxy-phenyl)pyrazolo[3,4-d]pyrimidin-1-yl]piperidine-1-carbonyl]-4-methyl-4-[4-(oxetan-3-yl)piperazin-1-yl]pent-2-enenitrile]
ISS7 Post-baseline Mean (SD) (outlier removed, 400 mg TID, Week 1): 9.79 (5.47)
ISS7 Post-baseline Mean (SD) (outlier removed, 400 mg TID, Week 2): 8.59 (5.80)
ISS7 Post-baseline Mean (SD) (outlier removed, 400 mg TID, Week 3): 8.18 (5.41)
ISS7 Post-baseline Mean (SD) (outlier removed, 400 mg TID, Week 4): 7.79 (5.03)
ISS7 Post-baseline Mean (SD) (outlier removed, 400 mg TID, Week 5): 6.92 (5.87)
ISS7 Post-baseline Mean (SD) (outlier removed, 400 mg TID, Week 6): 7.32 (6.05)
ISS7 Post-baseline Mean (SD) (outlier removed, 400 mg TID, Week 7): 7.14 (5.35)
ISS7 Post-baseline Mean (SD) (outlier removed, 400 mg TID, Week 8): 7.24 (5.51)
ISS7 Post-baseline Mean (SD) (outlier removed, 400 mg TID, Week 9): 6.68 (5.31)
ISS7 Post-baseline Mean (SD) (outlier removed, 400 mg TID, Week 10): 6.75 (5.25)
ISS7 Post-baseline Mean (SD) (outlier removed, 400 mg TID, Week 11): 6.99 (5.53)
ISS7 Post-baseline Mean (SD) (outlier removed, 400 mg TID, Week 12): 5.77 (5.26)
ISS7 % Change difference for rilzabrutinib vs. placebo LS Mean (95% CI) (400 mg BID, Week 1): −23.80 (−38.99, −8.60) %
ISS7 % Change from baseline LS Mean (SE) (400 mg BID, Week 1): −33.92 (5.73) %
ISS7 Change difference for rilzabrutinib vs. placebo LS Mean (95% CI) (400 mg BID, Week 1): −3.14
ISS7 Change from baseline LS Mean (SE) (400 mg BID, Week 1): −5.06 (0.83)
ISS7 % Change difference for rilzabrutinib vs. placebo LS Mean (95% CI) (400 mg BID, Week 2): −17.28 (−32.06, −2.50) %
ISS7 % Change from baseline LS Mean (SE) (400 mg BID, Week 2): −35.92 (5.58) %
ISS7 Change difference for rilzabrutinib vs. placebo LS Mean (95% CI) (400 mg BID, Week 2): −2.26
ISS7 Change from baseline LS Mean (SE) (400 mg BID, Week 2): −5.49 (0.83)
ISS7 Post-baseline Mean (SD) (400 mg BID, Week 2): 10.32 (5.64)
ISS7 % Change difference for rilzabrutinib vs. placebo LS Mean (95% CI) (400 mg BID, Week 3): −20.30 (−35.19, −5.41) %
ISS7 % Change from baseline LS Mean (SE) (400 mg BID, Week 3): −40.91 (5.60) %
ISS7 Change difference for rilzabrutinib vs. placebo LS Mean (95% CI) (400 mg BID, Week 3): −2.82
ISS7 Change from baseline LS Mean (SE) (400 mg BID, Week 3): −6.52 (0.87)
ISS7 Post-baseline Mean (SD) (400 mg BID, Week 3): 9.16 (6.09)
ISS7 % Change difference for rilzabrutinib vs. placebo LS Mean (95% CI) (400 mg BID, Week 4): −20.53 (−36.37, −4.69) %
ISS7 % Change from baseline LS Mean (SE) (400 mg BID, Week 4): −43.47 (5.96) %
ISS7 Change difference for rilzabrutinib vs. placebo LS Mean (95% CI) (400 mg BID, Week 4): −2.86
ISS7 Change from baseline LS Mean (SE) (400 mg BID, Week 4): −6.96 (0.93)
ISS7 Post-baseline Mean (SD) (400 mg BID, Week 4): 8.32 (6.02)
ISS7 Post-baseline Mean (SD) (400 mg BID, Week 5): 8.88 (6.81)
ISS7 Post-baseline Mean (SD) (400 mg BID, Week 6): 8.85 (6.40)
ISS7 Post-baseline Mean (SD) (400 mg BID, Week 7): 8.21 (6.16)
ISS7 Post-baseline Mean (SD) (400 mg BID, Week 8): 7.33 (6.55)
ISS7 Post-baseline Mean (SD) (400 mg BID, Week 9): 7.63 (7.11)
ISS7 Post-baseline Mean (SD) (400 mg BID, Week 10): 8.17 (7.29)
ISS7 Post-baseline Mean (SD) (400 mg BID, Week 11): 7.93 (6.94)
ISS7 % Change difference for rilzabrutinib vs. placebo LS Mean (95% CI) (400 mg BID, Week 12): −14.10 (−32.26, 4.06) %
ISS7 % Change from baseline LS Mean (SE) (400 mg BID, Week 12): −48.31 (6.75) %
ISS7 Change difference for rilzabrutinib vs. placebo LS Mean (95% CI) (400 mg BID, Week 12): −1.96
ISS7 Change from baseline LS Mean (SE) (400 mg BID, Week 12): −7.73 (1.06)
ISS7 Post-baseline Mean (SD) (400 mg BID, Week 12): 8.09 (6.95)
ISS7 % Change difference for rilzabrutinib vs. placebo LS Mean (95% CI) (400 mg QPM, Week 1): −8.25 (−23.30, 6.80) %
ISS7 % Change from baseline LS Mean (SE) (400 mg QPM, Week 1): −18.38 (5.55) %
ISS7 Change difference for rilzabrutinib vs. placebo LS Mean (95% CI) (400 mg QPM, Week 1): −1.33
ISS7 Change from baseline LS Mean (SE) (400 mg QPM, Week 1): −3.25 (0.80)
ISS7 Post-baseline Mean (SD) (400 mg QPM, Week 1): 13.08 (4.52)
ISS7 % Change difference for rilzabrutinib vs. placebo LS Mean (95% CI) (400 mg QPM, Week 2): −5.32 (−19.96, 9.32) %
ISS7 % Change from baseline LS Mean (SE) (400 mg QPM, Week 2): −23.96 (5.37) %
ISS7 Change difference for rilzabrutinib vs. placebo LS Mean (95% CI) (400 mg QPM, Week 2): −0.76
ISS7 Change from baseline LS Mean (SE) (400 mg QPM, Week 2): −3.99 (0.80)
ISS7 % Change difference for rilzabrutinib vs. placebo LS Mean (95% CI) (400 mg QPM, Week 3): −8.38 (−23.14, 6.38) %
ISS7 % Change from baseline LS Mean (SE) (400 mg QPM, Week 3): −28.99 (5.42) %
ISS7 Change difference for rilzabrutinib vs. placebo LS Mean (95% CI) (400 mg QPM, Week 3): −1.12
ISS7 Change from baseline LS Mean (SE) (400 mg QPM, Week 3): −4.82 (0.85)
ISS7 Post-baseline Mean (SD) (400 mg QPM, Week 3): 11.60 (4.68)
ISS7 % Change difference for rilzabrutinib vs. placebo LS Mean (95% CI) (400 mg QPM, Week 4): −7.02 (−22.76, 8.71) %
ISS7 % Change from baseline LS Mean (SE) (400 mg QPM, Week 4): −29.97 (5.75) %
ISS7 Change difference for rilzabrutinib vs. placebo LS Mean (95% CI) (400 mg QPM, Week 4): −0.93
ISS7 Change from baseline LS Mean (SE) (400 mg QPM, Week 4): −5.03 (0.89)
ISS7 Post-baseline Mean (SD) (400 mg QPM, Week 4): 11.39 (4.79)
ISS7 Post-baseline Mean (SD) (400 mg QPM, Week 5): 11.00 (4.68)
ISS7 Post-baseline Mean (SD) (400 mg QPM, Week 6): 10.27 (5.26)
ISS7 Post-baseline Mean (SD) (400 mg QPM, Week 7): 10.68 (5.34)
ISS7 Post-baseline Mean (SD) (400 mg QPM, Week 8): 10.72 (5.26)
ISS7 Post-baseline Mean (SD) (400 mg QPM, Week 10): 10.43 (5.30)
ISS7 Post-baseline Mean (SD) (400 mg QPM, Week 11): 11.03 (5.55)
ISS7 % Change difference for rilzabrutinib vs. placebo LS Mean (95% CI) (400 mg QPM, Week 12): −0.54 (−18.55, 17.47) %
ISS7 % Change from baseline LS Mean (SE) (400 mg QPM, Week 12): −34.75 (6.64) %
ISS7 Change difference for rilzabrutinib vs. placebo LS Mean (95% CI) (400 mg QPM, Week 12): 0.58
ISS7 Change from baseline LS Mean (SE) (400 mg QPM, Week 12): −5.19 (1.02)
ISS7 % Change from baseline LS Mean (SE) (400 mg TID, Week 1): −37.45 (5.78) %
ISS7 Change difference for rilzabrutinib vs. placebo LS Mean (95% CI) (400 mg TID, Week 1): −4.21
ISS7 Change from baseline LS Mean (SE) (400 mg TID, Week 1): −6.13 (0.82)
ISS7 Post-baseline Mean (SD) (400 mg TID, Week 1): 9.51 (5.64)
ISS7 % Change difference for rilzabrutinib vs. placebo LS Mean (95% CI) (400 mg TID, Week 2): −27.63 (−42.70, −12.56) %
ISS7 % Change from baseline LS Mean (SE) (400 mg TID, Week 2): −46.27 (5.61) %
ISS7 Change difference for rilzabrutinib vs. placebo LS Mean (95% CI) (400 mg TID, Week 2): −4.14
ISS7 Change from baseline LS Mean (SE) (400 mg TID, Week 2): −7.37 (0.82)
ISS7 Post-baseline Mean (SD) (400 mg TID, Week 2): 8.40 (5.82)
ISS7 % Change difference for rilzabrutinib vs. placebo LS Mean (95% CI) (400 mg TID, Week 3): −27.20 (−42.33, −12.08) %
ISS7 % Change from baseline LS Mean (SE) (400 mg TID, Week 3): −47.81 (5.64) %
ISS7 Change difference for rilzabrutinib vs. placebo LS Mean (95% CI) (400 mg TID, Week 3): −3.58
ISS7 Change from baseline LS Mean (SE) (400 mg TID, Week 3): −7.29 (0.87)
ISS7 Post-baseline Mean (SD) (400 mg TID, Week 3): 8.34 (5.42)
ISS7 % Change difference for rilzabrutinib vs. placebo LS Mean (95% CI) (400 mg TID, Week 4): −24.55 (−40.74, −8.36) %
ISS7 % Change from baseline LS Mean (SE) (400 mg TID, Week 4): −47.50 (6.02) %
ISS7 Change difference for rilzabrutinib vs. placebo LS Mean (95% CI) (400 mg TID, Week 4): −3.23
ISS7 Change from baseline LS Mean (SE) (400 mg TID, Week 4): −7.33 (0.92)
ISS7 Post-baseline Mean (SD) (400 mg TID, Week 4): 7.79 (5.03)
